# Laboratory results from patent publication US11161819B2, “Substituted tetrahydroisoquinoline compounds useful as GPR120 agonists” (Merck Sharp & Dohme Corp., priority 2016, dated 2021).
# Target: T1, human GPR120 (Homo sapiens, UniProt Q5NUL3)
# T1 construct: expressed in transfected cells
# T1 sequence (Q5NUL3 1-361): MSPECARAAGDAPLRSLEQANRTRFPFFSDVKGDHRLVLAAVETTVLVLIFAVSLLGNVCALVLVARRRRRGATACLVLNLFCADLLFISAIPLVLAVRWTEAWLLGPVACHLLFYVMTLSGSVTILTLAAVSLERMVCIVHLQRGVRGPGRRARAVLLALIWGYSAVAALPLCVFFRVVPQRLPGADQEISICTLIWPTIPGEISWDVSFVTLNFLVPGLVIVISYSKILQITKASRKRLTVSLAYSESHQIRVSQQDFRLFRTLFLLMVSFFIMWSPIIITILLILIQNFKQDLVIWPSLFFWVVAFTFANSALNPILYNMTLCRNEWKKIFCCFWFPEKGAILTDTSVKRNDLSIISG
# Assay: Human GPR120 IP1 Assay (inositol phosphate turnover, CisBio IP-One kit)
# Type: cell-based
# Settings: IP1 accumulation in CHO-K1 cells stably expressing the short form of human GPR120; 60 min compound incubation; 4-parameter fit; read-out: hGPR120 EC50
# Description: Human GPR120 IP1 Assay Principle
# The binding of small molecule agonists to the G-protein-coupled receptor GPR120 activates phospholipase C, and leads to the generation of inositol 1,4,5-trisphosphate (InsP3 or IP3). IP3 is subsequently de-phosphorylated to IP1, which accumulates in cells and is stable in the presence of lithium chloride.
# In the present method, agonist-induced activation of the human GPR120 receptor was monitored by measuring the accumulation of IP1 in CHO-K1 cells that were stably expressing the short form of human GPR120 (Accession #NM_001195755). Following agonist addition, GPR120 activation and subsequent accumulation of IP1 was measured using a homogeneous Time Resolved Fluorescence-based ELISA commercially available from CisBio (IP-one ELISA Kit). The IP-One ELISA was a competitive immunoassay which uses IP1 labeled with […] and a terbium cryptate-labeled anti-IP1 monoclonal antibody. […] The signal loss was then back calculated to IP1 concentration using an IP1 standard curve. Determination of IP1 concentration was a direct measure of GPR120 activation and was used to determine compound potency (EC50).
# Generation of GPR120-Expressing Cells:
# Human GPR120 stable cell-lines were generated in CHO cells. The expression plasmids were transfected using lipofectamine (Life Technologies) following manufacturer's instructions. Stable cell-lines were generated following drug selection and single cell cloning.
# Inositol Phosphate Turnover (IP1) Assay:
# The assay was performed in 384-well format. CHO cells stably expressing human GPR120 were plated at […] per well in growth medium (DMEM/F12, 10% fetal calf serum). Cell plates were then incubated 16 hours at 37 degrees in a 5% CO2 incubator. Measurement of Inositol Phosphate Turnover (IP1) was performed using the CisBio IP-One kit (Part number 62IPAPEB). After the 16 hour incubation, the growth media was removed by centrifugation using the BlueWasher (AusWasher GUI Ver. v1.0.1.8) Protocol #21-“Light Dry” and 10 ul of stimulation buffer (prepared as described in the kit) was added to each well. In a separate plate, compounds were diluted in DMSO (200-fold over the final concentration in the assay well) and 50 nl was acoustically transferred to the appropriate well in the assay cell plate. The plates were then incubated for 60 minutes at 37 degrees in a 5% CO2 incubator. 10 ul of detection buffer (also prepared as described in the IP-One kit) was added to each well and the plates were incubated at room temperature for 60 minutes in the dark. The plates were then read in a Perkin Elmer EnVision or equivalent reader able to measure FRET. Fluorescent ratio of emission at 665 and 620 nm was then converted to the IP1 concentration by back calculating from an IP1 standard curve prepared at the time of the assay. The data was normalized to % activity using a reference compound, and the EC50 values were determined using a standard 4-parameter fit.
row,Compound,EC50 [nM]
1,"Cc1ccc(-n2nc(C)c(F)c2N2CCc3cc(CCC(=O)O)ccc3C2)cc1 [Example 47, 3-{2-[4-fluoro-3-methyl-1-(4-methylphenyl)-1H-pyrazol-5-yl]-1,2,3,4-tetrahydroisoquinolin-6-yl} propanoic acid]",91
2,"Cc1cc2c(c(F)c1CCC(=O)O)CCN(c1cc(OC(F)(F)F)ccc1F)C2 [Example 58, 3-(5-fluoro-2-(2-fluoro-5-(trifluoromethoxy)phenyl)-7-methyl-1,2,3,4-tetra-hydroisoquinolin-6-yl)propanoic acid]",472
3,"Cc1ccc(-n2nc(C)c(C#N)c2N2CCc3cc(OCCCCO)ccc3C2)cc1 [Example 139, 5-[6-(4-hydroxybutoxy)-3,4-dihydro-isoquinolin-2(1H)-yl]-3-methyl-1-(4-methylphenyl)-1H-pyrazole-4-carbonitrile]",187
4,"O=C(O)CCc1cc(F)c2c(c1)CCN(c1cc(OC(F)(F)F)ccc1F)C2 [Example 51, 3-{8-fluoro-2-[2-fluoro-5-(trifluoromethoxy)phenyl]-1,2,3,4-tetrahydroisoquinolin-6-yl}-propanoic acid]",317
5,"O=C(O)[C@H]1C[C@@H]1c1ccc2c(c1)CCN(Cc1cc(OC(F)(F)F)ccc1F)C2 [Example 90, (1S,2S)-2-{2-[2-fluoro-5-(trifluoro-methoxy)benzyl]-1,2,3,4-tetra hydroisoquinolin-6-yl}cyclo-propane carboxylic acid]",250
6,"COc1cc(OC2CCC2)nc(N2CCc3c(ccc(CCC(=O)O)c3F)C2)c1F [Example 148, 3-(2-(6-cyclobutoxy-3-fluoro-4-methoxypyridin-2-yl)-5-fluoro-1,2,3,4-tetra-hydroisoquinolin-6-yl)propanoic acid]",9
7,"N#Cc1c(F)cc(OC2CCC2)cc1N1CCc2cc(CCC(=O)O)ccc2C1 [Example 55, 3-{2-[2-cyano-5-(cyclobutyloxy)-3-fluorophenyl]-1,2,3,4-tetrahydro-isoquinolin-6-yl}propanoic acid]",25
8,"O=C(O)CCc1ccc2c(c1)CCN(c1cc(SC3CCC3)ncc1F)C2 [Example 26, 3-{2-[2-(cyclobutylsulfanyl)-5-fluoropyridin-4-yl]-1,2,3,4-tetrahydro-isoquinolin-6-yl}propanoic acid]",97
9,"O=C(O)[C@@H]1C[C@H]1c1ccc2c(c1)CCN(c1cc(OC3CCC3)cc(Cl)c1F)C2 [Example 114, (1R,2R)-2-{2-[3-chloro-5-(cyclobutyloxy)-2-fluorophenyl]-1,2,3,4-tetrahydroisoquinolin-6-yl} cyclopropanecarboxylic acid]",61
10,"O=C(O)CCc1ccc2c(c1)CCN(c1cc(OC3CCC3)cc(F)c1Cl)C2 [Example 45, 3-{2-[2-chloro-5-(cyclobutyloxy)-3-fluorophenyl]-1,2,3,4-tetrahydro-isoquinolin-6-yl}propanoic acid]",2290
11,"Cc1ccc(-n2nc(C)c(C#N)c2N2CCc3cc(C(C)CCCC(=O)O)ccc3C2)cc1 (single isomer, unassigned) [Example 142, 5-{2-[4-cyano-3-methyl-1-(4-methylphenyl)-1H-pyrazol-5-yl]-1,2,3,4-tetra-hydroisoquinolin-6-yl}hexanoic acid]",312
12,"O=C(O)CCc1ccc2c(c1)CCN(Cc1c(-c3ccc(Cl)cc3)nsc1C(F)(F)F)C2 [Example 50, 3-(2-{[3-(4-chlorophenyl)-5-(trifluoromethyl)isothiazol-4-yl]methyl}-1,2,3,4-tetrahydroiso-quinolin-6-yl)propanoic acid]",348
13,"C[C@H]1C[C@H](Oc2cc(F)c(F)c(N3CCc4cc([C@H]5C[C@@H]5C(=O)O)ccc4C3)c2)C1 [Example 98, (1S,2S)-2-(2-{2,3-difluoro-5-[(trans-3-methylcyclobutyl)oxy]phenyl}-1,2,3,4-tetrahydroiso-quinolin-6-yl)-cyclopropane-carboxylic acid]",100
14,"COc1ccc(-n2nc(C)c(C#N)c2N2CCc3cc(CCC(=O)O)ccc3C2)cc1 [Example 43, 3-{2-[4-cyano-1-(4-methoxy-phenyl)-3-methyl-1H-pyrazol-5-yl]-1,2,3,4-tetrahydroisoquinolin-6-yl}propanoic acid]",1470
15,"O=C(O)C1CC1c1ccc2c(c1)CCN(c1cc(OC(F)(F)F)ccc1F)C2 (stereo not shown) [Example 102, 2-{2-[2-fluoro-5-(trifluoromethoxy)phnyl]-1,2,3,4-tetrahydroisoquinolin-6-yl}cyclopropane-carboxylic acid]",118
16,"COc1ccc(-n2nc(C)c(C#N)c2N2CCc3ccccc3C2)cc1 [Example 141, 5-(3,4-dihydroisoquinolin-2(1H)-yl)-1-(4-methoxyphenyl)-3-methyl-1H-pyrazole-4-carbonitrile]",288
17,"N#Cc1cc(OC(F)(F)F)cc(N2CCc3c(ccc([C@@H]4C[C@H]4C(=O)O)c3F)C2)c1F [Example 109, (1R,2R)-2-{2-[3-cyano-2-fluoro-5-(trifluoromethoxy)phenyl]-5-fluoro-1,2,3,4-tetrahydroisoquinolin-6-yl}cyclopropane-carboxylic acid]",22
18,"CO[C@H]1C[C@H](Oc2cc(C#N)c(F)c(N3CCc4cc(CCC(=O)O)ccc4C3)c2)C1 [Example 34, 3-(2-{3-cyano-2-fluoro-5-[(trans-3-methoxycyclobutyl)oxy]phenyl}-1,2,3,4-tetrahydroisoquinolin-6-yl)propanoic acid]",184
19,"O=C(O)CCc1ccc2c(c1)CCN(c1cc3c(C(F)(F)F)noc3cc1F)C2 [Example 29, 3-{2-[6-fluoro-3-(trifluoromethyl)-1,2-benzisoxazol-5-yl]-1,2,3,4-tetrahydroisoquinolin-6-yl}-propanoic acid]",171
20,"Cc1cnc(Oc2cc(Cl)c(F)c(N3CCc4c(ccc(CCC(=O)O)c4F)C3)c2)s1 [Example 62, 3-(2-{3-chloro-2-fluoro-5-[(5-methyl-1,3-thiazol-2-yl)oxy]phenyl}-5-fluoro-1,2,3,4-tetrahydroisoquinolin-6-yl)propanoic acid]",3
21,"N#Cc1ccc(OC(F)(F)F)cc1N1CCc2c(ccc([C@H]3C[C@@H]3C(=O)O)c2F)C1 [Example 117, (1S,2S)-2-{2-[2-cyano-5-(trifluoromethoxy)phenyl]-5-fluoro-1,2,3,4-tetrahydroisoquinolin-6-yl} cyclopropane-carboxylic acid]",143
22,"CO[C@H]1C[C@H](Oc2cc(F)c(F)c(N3CCc4c(ccc([C@H]5C[C@@H]5C(=O)O)c4F)C3)c2)C1 [Example 106, (1 S,2S)-2-(2-(2,3-difluoro-5-((1 r,3S)-3-methoxycyclobutoxy)phenyl)-5-fluoro-1,2,3,4-tetra-hydroisoquinolin-6-yl)cyclopropanecarboxylic acid]",83
23,"O=C(O)CCc1ccc2c(c1)CCN(c1cc(OC3CCC3)cc(C(F)F)c1F)C2 [Example 10, 3-{2-[5-(cyclobutyloxy)-3-(difluoromethyl)-2-fluorophenyl]-1,2-3,4-tetrahydroisoquinolin-6-yl}-propanoic acid]",14
24,"COc1cc(F)c(N2CCc3cc(CCC(=O)O)ccc3C2)cc1Oc1ccc(C)cn1 [Example 28, 3-(2-{2-fluoro-4-methoxy-5-[(5-methylpyridin-2-yl)oxy]phenyl}-1,2,3,4-tetrahydroisoquinolin-6-yl)propanoic acid]",169
25,"Cc1ccc(-n2nc(C)c(F)c2CN2CCc3cc(CCC(=O)O)ccc3C2)cc1 [Example 143, 3-(2-{[4-fluoro-3-methyl-1-(4-methylphenyl)-1H-pyrazol-5-yl]methyl}-1,2,3,4-tetrahydroisoquinolin-6-yl)propanoic acid]",395
